Laboratory results: US8012414B2, “Sterilization of drugs using supercritical carbon dioxide sterilant” (Novasterilis, priority 2007, dated 2011)

Experiment: State of micro-crystalline/powder drug after supercritical CO2 sterilization with peracetic acid additive
Format: physicochemical
Conditions: 1500 psi, 35° C., 180 minutes, Peracetic Acid 16 mL
Method: For these products, the input or flow of CO2 through valve 24 into the reactor pressure vessel 22 is regulated to 0.01 to 5 psi/second. Regulating the rate of pressurization is also intended to control mass flow (1000 mg/second) of CO2 into the reactor pressure vessel 22. In the initial fill, the valve 24 is opened and allowed to flow at the regulated rate using the ambient pressure of the CO2 supply from the gas cylinder 12. The CO2 supply pressure can range from 75 psi to approximately 900 psi or greater. Once the pressure in reactor pressure vessel 22 reaches equilibrium with the CO2 supply source pressure, the pumping of the CO2 using the carbon dioxide booster 16 begins. […] Once the reactor pressure vessel 22 reaches its operating pressure of 1500 psi, the process is allowed to continue through its normal path. Upon completion of the desired time period at the operating temperature and pressure, depressurization of the reactor pressure vessel 22 then occurs. […] Regulating the rate of depressurization is also intended to control of mass flow of CO2 out of the reactor pressure vessel 22. The rate of depressurization is controlled at this rate until the ambient pressure in the reactor pressure vessel 22 is zero or at equilibrium with the atmospheric pressure. Ambient conditions are generally zero psi and 25 degrees C. […]

Methyl-Prednisone
State of the Corticosteroid drug after sterilization (look and feel of powder) (CO2 pressurization 5 psi/second, depressurization 50 psi/second): unchanged
State of the Corticosteroid drug after sterilization (look and feel of powder) (CO2 pressurization 75 psi/second (unrestricted), depressurization 100 psi/second): changed
